Key:
[1] = tested on: IRF-1; test: LPS-increased IRF-1 mRNA and IRF-1 binding to MxISRE in RAW 264.7 macrophages (Northern, EMSA); type: cell-based, mouse
From the text: IRF-1 is a transcription factor which is induced upon LPS stimulation of macrophages through a Stat1 dependent mechanism (Y. Ohmori, et al., J Leukoc Biol, 69:598-604 (2001)). Therefore IRF-1 provides another example of a response that may be affected by an inhibitor of LPS induced IFN-β signaling. Unlike other molecules studied thus far, IRF-1 acts as a transcription factor to directly bind to DNA to enhance transcription of other genes such as iNOS (R. Kamijo, et al., Science, 263:1612-5, (1994)). In macrophages treated with LPS, IRF-1 is required for the transcriptional control of the iNOS gene (R. Kamijo, et al., Science, 263:1612-5 (1994)). […] Typical LPS induction for each time point is observed in each LPS plus DMSO lane (FIG. 14A, lanes 2, 5, 8). […] The decrease by C10 is much greater than by MMI (FIG. 14A, lanes 6 and 9 vs 7 and 10, respectively). […] Specificity was observed upon incubation of extracts with unlabeled […] probe (FIG. 14B, lane 9). […] ID NO:23) and [NT] (469 bp) (SEQ ID NO:24); […] ID NO:25) and [NT] […] ID NO:27) and [NT] […] ID NO:29) and [NT] (586 bp) (SEQ ID NO:30). […] EMSA in RAW 264.7 cells: Nuclear extracts were prepared using NE-PER® extraction reagents (Pierce Chemical Co.; Rockford, Ill.) in the presence of a protease inhibitor cocktail (PMSF, Leupeptin, Pepstatin-A). Oligonucleotide sense strand probe sequences were as follows […] probe: [NT] […]

[2] = tested on: MHC gene expression; conditions: cited from earlier work
[3] = tested on: IRF-3; test: IRF-3 transactivation cis reporter in FRTL-5 thyrocytes; type: cell-based, rat; conditions: FRTL-5, 6 hours, 0.5 mM C-10
Method: FIG. 5. Phenylmethimazole (CIO) and Methimazole (MMI) inhibit the ability of Poly (I:C), lipopolysaccharide (LPS) and IL-1β to increase IFN-β gene expression (Top Left) and IRF-3 transactivation (Top Right) in FRTL-5 thyrocytes. (Top Left) Cells were co-transfected with IFNβ-Luc and control vector (pRLTk-Int), then treated with or without (−) Poly (I:C) (100 μg/ml), LPS (100 ng/ml), or IL-1β (10 ng/ml) in the presence of the vehicle (DMSO) alone (−), C10, or MMI for 6 hours. Data was obtained with the Dual Luciferase Assay system. (Top Right) Cells were co-transfected with Gal4 DBD/IRF-3 and Gal4-Luc then treated with nothing (−), poly (I:C), LPS, or IL-1β as in (Top Left) in the presence of DMSO or C10 for 6 hours. Data was obtained by Luciferase assay. Also shown is a graphic depiction (Bottom) of how the cis reporting system is working. Data are representative of multiple experiments.
We measured the ability of C10 to inhibit IRF-3 transactivation activity in FRTL-5 thyrocytes, using the IRF-3 cis reporter system (FIG. 5, bottom).
Plasmids for Reporter Gene Assays. Human IRF-3 was amplified from human cDNA and cloned into pCR 2.1 by the TOPO/TA (Invitrogen, Carlsbad, Calif.) cloning method, and then sequenced. IRF-3 was then excised by EcoRI digestion and subcloned into pCMV-BD (Stratagene, La Jolla, Calif.) for use in transactivation assays. […]

Cn1c(-c2ccccc2)cnc1S [Compound C10, 5-Phenylmethimazole]
LPS induced IRF-1 binding to the MxISRE element (EMSA) ([1]; RAW 264.7, LPS 1 μg/mL 2 hours): dose dependent reduction | LPS-increased IRF-1 mRNA ([1]; RAW 264.7, LPS 1 μg/mL, 2 and 3 hours, Northern): strong reduction | potency in suppressing MHC gene expression relative to MMI [2]: 50-100 fold | IRF-3 transactivation by poly (I:C), LPS, or IL-1β [3]: inhibited

Reference: US9326972B2, “Use of phenylmethimazoles, methimazole derivatives, and tautomeric cyclic thiones for the treatment of autoimmune/inflammatory diseases associated with toll-like receptor overexpression” (Ohio University, priority 2004, dated 2016)
